Key:
[1] = Oral bioavailability in Sprague-Dawley rat at 10 mg/kg after 15 to 240 mins by HPLC method; assay type: ADME, organism-based; conditions: in vivo
[2] = Toxicity in ICR mouse assessed as induction of mouse mortality by measuring death incidence at 2000 mg/kg, po measured up to 24 hrs post dose; assay type: organism-based; conditions: in vivo
[3] = Oral bioavailability in Sprague-Dawley rat at 10 mg/kg after 15 to 240 mins by LC-MS/MS method; assay type: ADME, organism-based; conditions: in vivo
[4] = test system: Rattus norvegicus; experiment: Reduction in urinary glucose excretion in overnight fasted Sprague-Dawley rat assessed as urinary glucose concentration per 200 g of body weight per 24 hours at 10 /kg, po; assay type: functional
[5] = test system: Rattus norvegicus; experiment: Reduction in urinary glucose excretion in overnight fasted Sprague-Dawley rat assessed as urinary glucose concentration per 200 g of body weight per 24 hours at 1 mg/kg, po; assay type: functional
[6] = test system: Rattus norvegicus; experiment: Reduction in urinary glucose excretion in overnight fasted Sprague-Dawley rat assessed as urinary glucose concentration per 200 g of body weight per 24 hours at 3 mg/kg, po; assay type: functional

Row | Compound | bioavailability [1] | Activity [2] | bioavailability [3] | Activity [4] | Activity [5] | Activity [6]
1 | Cc1[nH]nc(O[C@@H]2O[C@H](CO)[C@@H](O)[C@H](O)[C@H]2O)c1Cc1ccc(C(C)C)cc1 | 15% |  |  |  |  | 
2 | CSc1ccc(Cc2c(O[C@@H]3O[C@H](CO)[C@@H](O)[C@H](O)[C@H]3O)n[nH]c2C(F)(F)F)cc1 | 11% | Non-Toxic |  |  |  | 
3 | Cc1c(Cc2ccc(OC(C)C)cc2)c(O[C@@H]2O[C@H](COC(=O)OCC(C)C)[C@@H](O)[C@H](O)[C@H]2O)nn1C(C)C |  |  | 32% |  |  | 
4 | Cc1[nH]nc(O[C@@H]2O[C@H](CO)[C@@H](O)[C@H](O)[C@H]2O)c1Cc1ccc(OC(C)C)cc1 | 0% |  |  |  |  | 
5 | CCOC(=O)OC[C@H]1O[C@@H](Oc2nn(C(C)C)c(C)c2Cc2ccc(OC(C)C)cc2)[C@H](O)[C@@H](O)[C@@H]1O [REMOGLIFLOZIN ETABONATE] |  |  | 27% | 127.5 mg | 1.6 mg | 28.3 mg
6 | COC(=O)OC[C@H]1O[C@@H](Oc2nn(C(C)C)c(C)c2Cc2ccc(OC(C)C)cc2)[C@H](O)[C@@H](O)[C@@H]1O |  |  | 27% | 167.3 mg | 1.7 mg | 36.8 mg

From ChEMBL document CHEMBL3880397, “Glucopyranosyloxypyrazole derivatives and use thereof in medicines” (2004)
